Experimental data as given in patent publication US20240125768A1, “METHODS FOR MODULATING A SRC-1 CONDENSATE” (ETERN BIOPHARMA (SHANGHAI) CO., LTD., priority 2021, published 2024).

Legend:
YAP [1] = test: ChIP-qPCR of YAP association on YAP target regions; type: cell-based, human; conditions: DMSO or elvitegravir
Protocol: FIG. 7J illustrates the association of YAP on YAP targets regions (#1:ANKRD1enhancer, #2:PAWRpromoter, #3:NPPBpromoter, #4:CTGF promoter) were analyzed by ChIP-qPCR from cells treated with DMSO or elvitegravir. Data are representative of 3 independent experiments. Error bars indicate the s.e.m. of triplicate qPCR data.
FIG. 7K illustrates the association of YAP on YAP target regions were analyzed by ChIP-qPCR in SF268 cells treated with EVG or DMSO. Error bars show mean±s.e.m. (n=3).
Briefly, cells were crosslinked with 1% formaldehyde (Sigma) in culture medium for 10 min at room temperature, and chromatin from lysed nuclei was sheared to 200-1000 bp fragments using a Bioruptor® Pico (Diagenode SA). ˜50 μg of sheared chromatin and ˜2 μg of antibody were mixed. […] Quantitative real-time PCR was carried out with QuantStudio™ 6 Flex Real-Time PCR Systems (Thermofisher Scientific). The amount of immunoprecipitated DNA in each sample was determined as the fraction of the input, and normalized to the IgG control. […]
Chromatin immunoprecipitation antibodies are listed in Supplementary […] Supplementary Methods. […] Quantitative real-time PCR was carried out with QuantStudio™ 6 Flex Real-Time PCR Systems (Thermofisher Scientific). The amount of immunoprecipitated DNA in each sample was determined as the fraction of the input, and normalized to the IgG control.

YAP [2] = test: YAP reporter cell-based screen of FDA-approved drugs (luciferase, qPCR validation); conditions: YAP reporter cell-based screen in a library of FDA-approved drugs
From the text: FIG. 7B illustrates high-throughput screening results. 449 FDA-approved compounds were screened and evaluated by the z-factor of cell viability and luciferase activity (Blue dots: screened compounds; red dots: positive compounds). The screening criteria is luciferase z-factor <−4 and cell viability >−4. (Positive compound, PC: Fedratinib)
FIG. 7C illustrates qPCR analysis examining the expression of YAP-targeted CTGF and CYR61 was used to validate candidate positive compounds from the screening. Error bars show mean±s.e.m. (n=2).
FIG. 7D illustrates the qPCR analysis of YAP target genes in SF268 cells treated with DMSO or 20 µM EVG for 24 h. Error bars show mean±s.e.m. (n=3).
YAP binding sites were cloned into the NheI and HindIII sites of the pGL4.76 basic vector (Promega) containing heat shock basal promoter. Luciferase activity was measured using the Renilla-Glo® Luciferase Assay System (Promega). Cell viability was measured using CellTiter-Glo® One Solution Assay (Promega). Relative luciferase activity=luciferase activity/cell viability.
Cells were treated with compounds for indicated periods, then total RNAs were extracted with TRIzol™ Reagent (15596018, Invitrogen) and reverse-transcripted using the High efficient cDNA synthesis master mix (FSQ-301, TOYOBO). Quantitative RT-PCR was performed with […] SYBR® Premix Ex Taq™ (RR420, Takara). […]

[3] = system: SRC-1's binding with YAP and TEAD; test: FLAG pulldown assay with recombinant proteins; conditions: in vitro pulldown, concentrations up to 400 μM
Protocol: FIG. 7N illustrates purified Flag-SRC-1 protein was mixed with YAP and/or TEAD4 in the presence of increasing concentrations of EVG and was subjected to three independent pull-downs using anti-flag beads.
Three independent pull down assays were performed to detect the direct binding between SRC1 and YAP/TEAD4. Purified FLAG-SRC1 truncated proteins were incubated with YAP, TEAD4 and YAP plus TEAD4 respectively, and further subjected to pull down assays by ANTI-FLAG® M2 Affinity Gel (A2220, Sigma-Aldrich). Elvitegravir was co-incubated with the mixtures at increasing concentrations (0, 50, 200, 400 μM) as indicated. Complexes were washed in PBS buffer and proteins were eluted using 2×SDS loading buffer.

SRC-1 phase separation = molecular target: T1, SRC-1 phase separation (Homo sapiens, UniProt Q15788); test: High content image of mScarlet-SRC-1 puncta in H1299 cells; type: cell-based; conditions: 20 μM
T1 construct: expressed in transfected cells; host or cells: H1299
Protocol: FIG. 7Q illustrates quantification result of high content image data for mScarlet-SRC-1 puncta in H1299 cells treated w/o 20 μM EVG. ***p<0.001.
Eight hours after transfection, H1299 cells expressing mScarlet-SRC-1 were seeded in 24-well glass bottom plate (Cellvis P24-1.5H-N) and EVG was added two hours later. Images were obtained with the Operetta CLSTM high-content cell imaging analysis system (PerkinElmer Inc., Waltham, MA, USA). The 63× objective lens was applied in each condition. Data was analyzed by images collected from over 100 representative fields in each group. The spots quantification was performed based on the area and intensity of the spots through mScarlet channel. GraphPad Prism is used to plot and analyze the high content image results.

T1 sequence (Q15788 whole entry): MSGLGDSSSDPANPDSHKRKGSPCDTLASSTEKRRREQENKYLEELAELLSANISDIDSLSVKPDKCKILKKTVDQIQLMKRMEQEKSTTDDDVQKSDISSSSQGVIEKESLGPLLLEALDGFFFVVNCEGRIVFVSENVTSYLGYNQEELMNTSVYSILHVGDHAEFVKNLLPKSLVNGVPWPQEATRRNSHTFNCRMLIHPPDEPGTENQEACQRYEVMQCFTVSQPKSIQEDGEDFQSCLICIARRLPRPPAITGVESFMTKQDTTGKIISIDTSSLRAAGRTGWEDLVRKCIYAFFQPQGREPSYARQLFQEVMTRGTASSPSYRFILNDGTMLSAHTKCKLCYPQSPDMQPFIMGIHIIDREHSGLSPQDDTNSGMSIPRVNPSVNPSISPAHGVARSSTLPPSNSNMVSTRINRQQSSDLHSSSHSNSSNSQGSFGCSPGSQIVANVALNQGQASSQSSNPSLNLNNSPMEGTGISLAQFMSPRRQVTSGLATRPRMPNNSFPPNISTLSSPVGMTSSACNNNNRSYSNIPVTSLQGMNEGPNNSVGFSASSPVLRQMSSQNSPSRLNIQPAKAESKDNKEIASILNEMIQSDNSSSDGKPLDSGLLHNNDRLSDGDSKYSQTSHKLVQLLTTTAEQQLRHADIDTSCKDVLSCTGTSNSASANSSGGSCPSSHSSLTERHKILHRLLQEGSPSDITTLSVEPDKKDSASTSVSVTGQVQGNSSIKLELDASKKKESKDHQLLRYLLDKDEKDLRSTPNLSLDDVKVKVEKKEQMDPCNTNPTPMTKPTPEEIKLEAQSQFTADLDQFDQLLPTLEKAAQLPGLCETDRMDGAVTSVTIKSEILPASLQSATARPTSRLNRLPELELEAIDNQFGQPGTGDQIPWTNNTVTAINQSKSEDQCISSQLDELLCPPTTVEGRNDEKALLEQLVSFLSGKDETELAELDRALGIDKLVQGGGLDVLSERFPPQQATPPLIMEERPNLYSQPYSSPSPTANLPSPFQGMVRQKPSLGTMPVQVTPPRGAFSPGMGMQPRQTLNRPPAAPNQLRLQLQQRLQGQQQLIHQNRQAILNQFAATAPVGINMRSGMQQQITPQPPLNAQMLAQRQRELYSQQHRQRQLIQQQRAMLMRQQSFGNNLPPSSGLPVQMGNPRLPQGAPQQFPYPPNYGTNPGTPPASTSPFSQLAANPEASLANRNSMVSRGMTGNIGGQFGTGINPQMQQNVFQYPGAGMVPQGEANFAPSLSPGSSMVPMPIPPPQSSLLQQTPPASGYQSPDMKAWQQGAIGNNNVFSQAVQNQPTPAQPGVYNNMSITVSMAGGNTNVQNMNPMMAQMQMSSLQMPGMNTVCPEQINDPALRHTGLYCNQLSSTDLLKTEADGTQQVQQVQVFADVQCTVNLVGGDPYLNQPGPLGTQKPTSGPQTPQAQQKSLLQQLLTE

SRC-1's binding with YAP and TEAD [3]: did not affect
SRC-1 phase separation, high content image (mScarlet-SRC-1 puncta) (SRC-1 phase separation): inhibitory effects
SMILES: COc1cc2c(cc1Cc1cccc(Cl)c1F)c(=O)c(C(=O)O)cn2[C@H](CO)C(C)C [EVG, 6-[(3-chloro-2-fluorophenyl)methyl]-1-[(2S)-1-hydroxy-3-methylbutan-2-yl]-7-methoxy-4-oxoquinoline-3-carboxylic acid]
access of YAP to target genes (association of YAP on YAP target regions) (YAP [1]): excluding the possibility that EVG may block the access of YAP to target genes
YAP activity (YAP [2]): suppress YAP activity
